# PubChem BioAssay (NCI)
#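 Following 48 hours of exposure in 96-well plates, responses at five concentrations were used to interpolate endpoints linearly. Here, GI50 denotes the concentration required for 50% inhibition of growth. TGI: concentration producing complete growth inhibition.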
# What was measured:
# Assay in all cases: DTP human tumour cell line panel, 48 h
# 786-0 renal = system: 786-0 renal
# A498 renal = system: A498 renal
# A549 NSCLC = system: A549 NSCLC
# ACHN renal = system: ACHN renal
# CAKI-1 renal = system: CAKI-1 renal
# CCRF-CEM leukemia = system: CCRF-CEM leukemia
# COLO 205 colon = system: COLO 205 colon
# DU-145 prostate = system: DU-145 prostate
# EKVX NSCLC = system: EKVX NSCLC
# HCC-2998 colon = system: HCC-2998 colon
# HCT-116 colon = system: HCT-116 colon
# HCT-15 colon = system: HCT-15 colon
# HL-60(TB) leukemia = system: HL-60(TB) leukemia
# HOP-62 NSCLC = system: HOP-62 NSCLC
# HOP-92 NSCLC = system: HOP-92 NSCLC
# HS 578T breast = system: HS 578T breast
# HT29 colon = system: HT29 colon
# IGROV1 ovarian = system: IGROV1 ovarian
# K-562 leukemia = system: K-562 leukemia
# KM12 colon = system: KM12 colon
# LOX IMVI melanoma = system: LOX IMVI melanoma
# M14 melanoma = system: M14 melanoma
# MALME-3M melanoma = system: MALME-3M melanoma
# MCF7 breast = system: MCF7 breast
# MDA-MB-231 breast = system: MDA-MB-231 breast
# MDA-MB-435 = system: MDA-MB-435
# NCI-H226 lung = system: NCI-H226 lung
# NCI-H23 lung = system: NCI-H23 lung
# NCI/ADR-RES ovarian = system: NCI/ADR-RES ovarian
# OVCAR-3 ovarian = system: OVCAR-3 ovarian
# OVCAR-4 ovarian = system: OVCAR-4 ovarian
# OVCAR-5 ovarian = system: OVCAR-5 ovarian
# OVCAR-8 ovarian = system: OVCAR-8 ovarian
# PC-3 prostate = system: PC-3 prostate
# RPMI-8226 leukemia = system: RPMI-8226 leukemia
# RXF 393 renal = system: RXF 393 renal
# SF-268 CNS = system: SF-268 CNS
# SF-295 CNS = system: SF-295 CNS
# SF-539 CNS = system: SF-539 CNS
# SK-MEL-2 melanoma = system: SK-MEL-2 melanoma
# SK-MEL-28 melanoma = system: SK-MEL-28 melanoma
# SK-MEL-5 melanoma = system: SK-MEL-5 melanoma
# SK-OV-3 ovarian = system: SK-OV-3 ovarian
# SNB-19 CNS = system: SNB-19 CNS
# SNB-75 CNS = system: SNB-75 CNS
# SR leukemia = system: SR leukemia
# SW-620 colon = system: SW-620 colon
# TK-10 renal = system: TK-10 renal
# U251 CNS = system: U251 CNS
# UACC-257 melanoma = system: UACC-257 melanoma
# UACC-62 melanoma = system: UACC-62 melanoma
# UO-31 renal = system: UO-31 renal
compound,measurement,setting,value
Cc1ccc(/C=C2\CN(C(=O)C(Cl)Cl)C/C(=C\c3ccc(C)cc3)C2=O)cc1,GI50,786-0 renal,0.194 µM
same,TGI,786-0 renal,0.397 µM
same,GI50,A498 renal,0.203 µM
same,TGI,A498 renal,0.79 µM
same,GI50,A549 NSCLC,0.293 µM
same,GI50,ACHN renal,0.244 µM
same,TGI,ACHN renal,0.62 µM
same,GI50,CAKI-1 renal,0.273 µM
same,TGI,CAKI-1 renal,1.01 µM
same,GI50,CCRF-CEM leukemia,0.11 µM
same,TGI,CCRF-CEM leukemia,> 100 µM
same,GI50,COLO 205 colon,0.241 µM
same,TGI,COLO 205 colon,0.695 µM
same,GI50,DU-145 prostate,0.326 µM
same,TGI,DU-145 prostate,1.28 µM
same,GI50,EKVX NSCLC,0.348 µM
same,TGI,EKVX NSCLC,2.31 µM
same,GI50,HCC-2998 colon,0.176 µM
same,TGI,HCC-2998 colon,0.33 µM
same,GI50,HCT-116 colon,0.0654 µM
same,TGI,HCT-116 colon,0.194 µM
same,GI50,HCT-15 colon,0.185 µM
same,TGI,HCT-15 colon,0.638 µM
same,GI50,HL-60(TB) leukemia,0.25 µM
same,TGI,HL-60(TB) leukemia,1.33 µM
same,GI50,HOP-62 NSCLC,0.298 µM
same,TGI,HOP-62 NSCLC,1.28 µM
same,GI50,HOP-92 NSCLC,1.47 µM
same,TGI,HOP-92 NSCLC,3.95 µM
same,GI50,HS 578T breast,0.343 µM
same,TGI,HS 578T breast,3.71 µM
same,GI50,HT29 colon,0.241 µM
same,GI50,IGROV1 ovarian,0.18 µM
same,TGI,IGROV1 ovarian,0.367 µM
same,GI50,K-562 leukemia,0.142 µM
same,TGI,K-562 leukemia,> 100 µM
same,GI50,KM12 colon,0.193 µM
same,TGI,KM12 colon,0.48 µM
same,GI50,LOX IMVI melanoma,0.0621 µM
same,TGI,LOX IMVI melanoma,0.199 µM
same,GI50,M14 melanoma,0.261 µM
same,TGI,M14 melanoma,0.784 µM
same,GI50,MALME-3M melanoma,0.35 µM
same,TGI,MALME-3M melanoma,2.04 µM
same,GI50,MCF7 breast,0.0546 µM
same,TGI,MCF7 breast,0.836 µM
same,GI50,MDA-MB-231 breast,0.337 µM
same,TGI,MDA-MB-231 breast,1.57 µM
same,GI50,MDA-MB-435,0.197 µM
same,TGI,MDA-MB-435,0.408 µM
same,GI50,NCI-H226 lung,0.245 µM
same,TGI,NCI-H226 lung,0.622 µM
same,GI50,NCI-H23 lung,0.221 µM
same,TGI,NCI-H23 lung,0.478 µM
same,GI50,NCI/ADR-RES ovarian,0.341 µM
same,GI50,OVCAR-3 ovarian,0.209 µM
same,TGI,OVCAR-3 ovarian,0.483 µM
same,GI50,OVCAR-4 ovarian,0.322 µM
same,TGI,OVCAR-4 ovarian,> 100 µM
same,GI50,OVCAR-5 ovarian,0.333 µM
same,TGI,OVCAR-5 ovarian,1.46 µM
same,GI50,OVCAR-8 ovarian,0.357 µM
same,TGI,OVCAR-8 ovarian,> 100 µM
same,GI50,PC-3 prostate,0.209 µM
same,TGI,PC-3 prostate,0.672 µM
same,GI50,RPMI-8226 leukemia,0.0322 µM
same,TGI,RPMI-8226 leukemia,0.484 µM
same,GI50,RXF 393 renal,0.216 µM
same,TGI,RXF 393 renal,0.507 µM
same,GI50,SF-268 CNS,0.331 µM
same,TGI,SF-268 CNS,2.43 µM
same,GI50,SF-295 CNS,0.223 µM
same,TGI,SF-295 CNS,0.665 µM
same,GI50,SF-539 CNS,0.227 µM
same,TGI,SF-539 CNS,0.567 µM
same,GI50,SK-MEL-2 melanoma,1.8 µM
same,TGI,SK-MEL-2 melanoma,5.5 µM
same,GI50,SK-MEL-28 melanoma,0.319 µM
same,TGI,SK-MEL-28 melanoma,1.19 µM
same,GI50,SK-MEL-5 melanoma,0.445 µM
same,TGI,SK-MEL-5 melanoma,1.53 µM
same,GI50,SK-OV-3 ovarian,1 µM
same,TGI,SK-OV-3 ovarian,> 100 µM
same,GI50,SNB-19 CNS,0.286 µM
same,TGI,SNB-19 CNS,1.03 µM
same,GI50,SNB-75 CNS,0.573 µM
same,TGI,SNB-75 CNS,2.9 µM
same,GI50,SR leukemia,0.11 µM
same,TGI,SR leukemia,> 100 µM
same,GI50,SW-620 colon,0.0554 µM
same,TGI,SW-620 colon,0.234 µM
same,GI50,TK-10 renal,0.57 µM
same,TGI,TK-10 renal,6.04 µM
same,GI50,U251 CNS,0.143 µM
same,TGI,U251 CNS,0.334 µM
same,GI50,UACC-257 melanoma,0.346 µM
same,TGI,UACC-257 melanoma,3.16 µM
same,GI50,UACC-62 melanoma,0.237 µM
same,TGI,UACC-62 melanoma,0.632 µM
same,GI50,UO-31 renal,0.158 µM
same,TGI,UO-31 renal,0.308 µM
